# Substitutions are numbered along the chain they refer to.
# Key:
# Assay in all cases: Relative rates of hydrolysis of poly-, oligosaccharides and aryl-glycosides
# Type in all cases: biochemical
# WT HvExoI = WT HvExoI (Hordeum vulgare, UniProt Q9XEI3); settings: substance is the substrate, HvExoI at 50 pmoles, nd = activity not detected
# Experimental: (§1) Dependency of activities of WT and mutant HvExoI on pH (McIlvaine buffers in the pH range of 3.5–8.5 at 30 °C) and temperature (100 mM sodium acetate buffer, pH 5.25, temperature range 0–80 °C, 15 min incubations) were determined using 0.2% (w/v) 4NP-Glc[21],[59]. Relative rates of hydrolysis of β-linked poly-, oligosaccharides, and aryl-glucosides were determined using near-homogenous HvExoI at 50 pmoles. […] Kinetic parameters were calculated from the analyses of Michaelis-Menten plots with Grafit 7.0.3[62] and processed by a proportional weighted fit, using nonlinear regression. The relative rates of hydrolysis, kinetic, and inhibition data were rounded to one or two decimal points (Supplementary Tables 2–4).
# HvExoI W434H mutant = target: T1, HvExoI W434H mutant (Hordeum vulgare, UniProt Q9XEI3, W459H); settings: substance is the substrate
# T1 sequence (Q9XEI3 26-630 W459H): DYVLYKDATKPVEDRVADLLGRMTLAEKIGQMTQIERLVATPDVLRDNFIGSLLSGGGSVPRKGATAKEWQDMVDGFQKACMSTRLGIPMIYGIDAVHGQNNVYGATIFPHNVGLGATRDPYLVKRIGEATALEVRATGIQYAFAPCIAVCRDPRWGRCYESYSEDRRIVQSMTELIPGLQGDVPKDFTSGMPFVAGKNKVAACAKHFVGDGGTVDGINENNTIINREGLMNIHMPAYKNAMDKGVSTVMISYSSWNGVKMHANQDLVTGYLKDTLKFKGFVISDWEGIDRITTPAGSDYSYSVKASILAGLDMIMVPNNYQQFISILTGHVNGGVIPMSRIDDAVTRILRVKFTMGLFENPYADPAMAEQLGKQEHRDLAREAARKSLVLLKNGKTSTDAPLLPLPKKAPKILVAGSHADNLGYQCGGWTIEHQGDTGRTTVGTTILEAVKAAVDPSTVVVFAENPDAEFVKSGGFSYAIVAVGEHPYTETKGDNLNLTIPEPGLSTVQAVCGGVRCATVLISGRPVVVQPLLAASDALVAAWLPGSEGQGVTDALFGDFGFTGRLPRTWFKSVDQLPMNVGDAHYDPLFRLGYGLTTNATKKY
# Experimental: as §1
# [1] = target: T2, HvExoI W286F/W434F mutant (Hordeum vulgare, UniProt Q9XEI3, W311F/W459F); settings: substance is the substrate, nd = activity not detected
# T2 sequence (Q9XEI3 26-630 W311F/W459F): T1 sequence (Q9XEI3 26-630 W459H) with W286F, H434F
# Experimental: as §1
# HvExoI W286F mutant = target: T3, HvExoI W286F mutant (Hordeum vulgare, UniProt Q9XEI3, W311F); settings: substance is the substrate, nd = activity not detected
# T3 sequence (Q9XEI3 26-630 W311F): T1 sequence (Q9XEI3 26-630 W459H) with W286F, H434W
# Experimental: as §1
# HvExoI W286Y mutant = target: T4, HvExoI W286Y mutant (Hordeum vulgare, UniProt Q9XEI3, W311Y); settings: substance is the substrate, nd = activity not detected
# T4 sequence (Q9XEI3 26-630 W311Y): T1 sequence (Q9XEI3 26-630 W459H) with W286Y, H434W
# Experimental: as §1
# WT HvExoI, sequence (Q9XEI3 entry or part of it): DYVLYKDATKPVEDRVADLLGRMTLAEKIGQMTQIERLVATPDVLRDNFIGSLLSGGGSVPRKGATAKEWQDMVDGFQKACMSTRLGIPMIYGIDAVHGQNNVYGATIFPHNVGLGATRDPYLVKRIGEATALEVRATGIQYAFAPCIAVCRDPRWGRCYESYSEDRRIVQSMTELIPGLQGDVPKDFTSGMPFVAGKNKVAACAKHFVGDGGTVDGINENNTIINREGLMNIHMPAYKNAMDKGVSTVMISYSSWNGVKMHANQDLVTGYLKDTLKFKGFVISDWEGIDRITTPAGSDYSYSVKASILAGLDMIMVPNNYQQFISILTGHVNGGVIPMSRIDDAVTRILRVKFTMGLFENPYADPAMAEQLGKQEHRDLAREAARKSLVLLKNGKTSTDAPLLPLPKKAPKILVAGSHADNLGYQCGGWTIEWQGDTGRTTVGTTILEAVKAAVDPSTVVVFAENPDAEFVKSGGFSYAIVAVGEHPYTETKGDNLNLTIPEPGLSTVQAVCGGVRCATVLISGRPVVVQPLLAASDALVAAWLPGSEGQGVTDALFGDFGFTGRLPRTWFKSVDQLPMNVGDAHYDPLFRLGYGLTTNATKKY
Compound,Activity (relative rate of hydrolysis) (WT HvExoI) [μmole/min per mg protein],Activity (relative rate of hydrolysis) (HvExoI W434H mutant) [μmole/min per mg protein],Activity (relative rate of hydrolysis) [1] [μmole/min per mg protein],Activity (relative rate of hydrolysis) (HvExoI W286F mutant) [μmole/min per mg protein],Activity (relative rate of hydrolysis) (HvExoI W286Y mutant) [μmole/min per mg protein]
OC[C@H]1O[C@@H](O[C@@H]2[C@@H](O)[C@H](O[C@@H]3[C@@H](O)[C@H](O[C@H]4[C@H](O)[C@@H](CO)OC(O)[C@@H]4O)O[C@H](CO)[C@H]3O)O[C@H](CO)[C@H]2O)[C@H](O)[C@@H](O)[C@@H]1O (stereo partly drawn) [Laminaritetraose],12.3 ± 0.5,1.4 ± 0.1,0.4 ± 0.04,1.1 ± 0.1,13.8 ± 0.1
"O=[N+]([O-])c1ccc(O[C@@H]2O[C@H](CO)[C@@H](O)[C@H](O)[C@H]2O)cc1 [4NP-Glc, 4-nitrophenyl β-D-glucopyranoside]",12.4 ± 0.8,2.4 ± 0.2,0.5 ± 0.02,0.9 ± 0.01,19.6 ± 0.01
OC[C@H]1O[C@@H](O[C@@H]2[C@@H](O)[C@H](O[C@H]3[C@H](O)[C@@H](CO)OC(O)[C@@H]3O)O[C@H](CO)[C@H]2O)[C@H](O)[C@@H](O)[C@@H]1O (stereo partly drawn) [Laminaritriose],12.4 ± 0.3,1.5 ± 0.04,0.5 ± 0.04,1.3 ± 0.01,14.1 ± 0.4
Gentiobiose,4.7 ± 0.4,0.3 ± 0.02,0.01 ± 0.001,0.4 ± 0.03,7.6 ± 0.8
OC[C@H]1O[C@@H](O[C@H]2[C@H](O)[C@@H](O)[C@H](O[C@H]3[C@H](O)[C@@H](O)C(O)O[C@@H]3CO)O[C@@H]2CO)[C@H](O)[C@@H](O)[C@@H]1O (stereo partly drawn) [Cellotriose],8.8 ± 0.4,0.3 ± 0.03,0.02 ± 0.002,0.1 ± 0.01,5.6 ± 0.1
OC[C@H]1O[C@@H](O[C@H]2C(O)O[C@H](CO)[C@@H](O)[C@@H]2O)[C@H](O)[C@@H](O)[C@@H]1O (stereo partly drawn) [Sophorose],6.0 ± 0.1,0.6 ± 0.1,0.3 ± 0.03,0.6 ± 0.01,12.5 ± 0.2
